Data on 31 compounds can be found in patent US12441691B2 (Cytokinetics, Inc., priority 2020, dated 2025).

In this test the test system is rabbit skeletal myofibrils (fast skeletal myofibrils). Briefly: Activation of fast skeletal myofibrils (PUMA assay, AC1.4). The note with it: calcium at pCa25, AC1.4 = concentration at which the compound increased the enzymatic activity. The test is classed as biochemical. In a few lines: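 In 12 mM PIPES pH 6.8 with 2 mM MgCl2 and 1 mM DTT, Triton-washed rabbit skeletal myofibrils were run at the pCa25 calcium level. Myosin-made ADP was recycled through a PK/LDH coupled system; NADH loss read at 340 nm.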
Take `CC[C@H](C)[C@H]1C(=O)Nc2ccccc2CN1C(=O)COc1ccccc1C(N)=O` [Compound 201, 2-(2-((S)-3-((S)-sec-butyl)-2-oxo-1,2,3,5-tetrahydro-4H-benzo[e][1,4]diazepin-4-yl)-2-oxoethoxy)benzamide]: the AC1.4 was 0.05 µM.
The value for `CC[C@H](C)[C@H]1C(=O)Nc2ccccc2CN1C(=O)Nc1ccc(NC(C)=O)nc1` [Compound 202, (S)-N-(6-acetamidopyridin-3-yl)-3-((S)-sec-butyl)-2-oxo-1,2,3,5-tetrahydro-4H-benzo[e][1,4]diazepine-4-carboxamide] was 0.17 µM; that for `CC[C@H](C)[C@H]1C(=O)Nc2ccccc2CN1C(=O)NCCO` [Compound 203, (S)-3-((S)-sec-butyl)-N-(2-hydroxyethyl)-2-oxo-1,2,3,5-tetrahydro-4H-benzo[e][1,4]diazepine-4-carboxamide] was 1.75 µM; that for `CC[C@H](C)[C@H]1C(=O)Nc2ccccc2CN1C(=O)NCC(N)=O` [Compound 204, (S)-N-(2-amino-2-oxoethyl)-3-((S)-sec-butyl)-2-oxo-1,2,3,5-tetrahydro-4H-benzo[e][1,4]diazepine-4-carboxamide] was 3.66 µM.
`CC[C@H](C)[C@H]1C(=O)Nc2ccccc2CN1C(=O)NCCC(N)=O` [Compound 205, (S)-N-(3-amino-3-oxopropyl)-3-((S)-sec-butyl)-2-oxo-1,2,3,5-tetrahydro-4H-benzo[e][1,4]diazepine-4-carboxamide]: the AC1.4 was determined as 1.58 µM.
Take `CC[C@H](C)[C@H]1C(=O)Nc2ccccc2CN1C(=O)NCC(=O)NC` [Compound 206, (S)-3-((S)-sec-butyl)-N-(2-(methylamino)-2-oxoethyl)-2-oxo-1,2,3,5-tetrahydro-4H-benzo[e][1,4]diazepine-4-carboxamide]: the AC1.4 worked out at 4.98 µM.
For the compound `CC[C@H](C)[C@H]1C(=O)Nc2ccccc2CN1C(=O)NC[C@H](O)CO` [Compound 207, (S)-3-((S)-sec-butyl)-N-((S)-2,3-dihydroxypropyl)-2-oxo-1,2,3,5-tetrahydro-4H-benzo[e][1,4]diazepine-4-carboxamide], the AC1.4 is 3.62 µM.
For `CC[C@H](C)[C@H]1C(=O)Nc2ccccc2CN1C(=O)NC[C@@H](O)CO` [Compound 208, (S)-3-((S)-sec-butyl)-N-((R)-2,3-dihydroxypropyl)-2-oxo-1,2,3,5-tetrahydro-4H-benzo[e][1,4]diazepine-4-carboxamide] the value was 2.70 µM.
For the compound `CC[C@H](C)[C@H]1C(=O)Nc2ccccc2CN1C(=O)N[C@@H]1CCNC1=O` [Compound 209, (S)-3-((S)-sec-butyl)-2-oxo-N-((R)-2-oxopyrrolidin-3-yl)-1,2,3,5-tetrahydro-4H-benzo[e][1,4]diazepine-4-carboxamide], the AC1.4 was 4.17 µM.
The value for `CC[C@H](C)[C@H]1C(=O)Nc2ccccc2CN1C(=O)N[C@H]1CCNC1=O` [Compound 210, (S)-3-((S)-sec-butyl)-2-oxo-N-((S)-2-oxopyrrolidin-3-yl)-1,2,3,5-tetrahydro-4H-benzo[e][1,4]diazepine-4-carboxamide] was 4.25 µM; that for `CC[C@H](C)[C@H]1C(=O)Nc2ccccc2CN1C(=O)NCCNC(C)=O` [Compound 211, (S)-N-(2-acetamidoethyl)-3-((S)-sec-butyl)-2-oxo-1,2,3,5-tetrahydro-4H-benzo[e][1,4]diazepine-4-carboxamide] was 2.92 µM.
As for `CC[C@H](C)[C@H]1C(=O)Nc2ccccc2CN1C(=O)NCCNC(N)=O` [Compound 212, (S)-3-((S)-sec-butyl)-2-oxo-N-(2-ureidoethyl)-1,2,3,5-tetrahydro-4H-benzo[e][1,4]diazepine-4-carboxamide], the AC1.4 amounted to 1.27 µM.
The value for `CC[C@H](C)[C@H]1C(=O)Nc2ccccc2CN1C(=O)NCC[S+](C)[O-]` (stereo partly drawn) [Compound 213, (3S)-3-((S)-sec-butyl)-N-(2-(methylsulfinyl)ethyl)-2-oxo-1,2,3,5-tetrahydro-4H-benzo[e][1,4]diazepine-4-carboxamide] was 4.04 µM.
For `CC[C@H](C)[C@H]1C(=O)Nc2ccccc2CN1C(=O)NCc1cncn1C` [Compound 214, (S)-3-((S)-sec-butyl)-N-((1-methyl-1H-imidazol-5-yl)methyl)-2-oxo-1,2,3,5-tetrahydro-4H-benzo[e][1,4]diazepine-4-carboxamide] the value was 1.72 µM; for `CC[C@H](C)[C@H]1C(=O)Nc2ccccc2CN1C(=O)NC[C@H]1CCC(=O)N1` [Compound 215, (S)-3-((S)-sec-butyl)-2-oxo-N-(((R)-5-oxopyrrolidin-2-yl)methyl)-1,2,3,5-tetrahydro-4H-benzo[e][1,4]diazepine-4-carboxamide], 4.65 µM.
For `CC[C@H](C)[C@H]1C(=O)Nc2ccccc2CN1C(=O)N[C@H]1CCCNC1=O` [Compound 216, (S)-3-((S)-sec-butyl)-2-oxo-N-((S)-2-oxopiperidin-3-yl)-1,2,3,5-tetrahydro-4H-benzo[e][1,4]diazepine-4-carboxamide] the value was 2.64 µM; for `CC[C@H](C)[C@H]1C(=O)Nc2ccccc2CN1C(=O)N[C@@H]1CCCNC1=O` [Compound 217, (S)-3-((S)-sec-butyl)-2-oxo-N-((R)-2-oxopiperidin-3-yl)-1,2,3,5-tetrahydro-4H-benzo[e][1,4]diazepine-4-carboxamide], 2.45 µM; for `CC[C@H](C)[C@H]1C(=O)Nc2ccccc2CN1C(=O)N[C@@H]1CCC(=O)NC1` [Compound 218, (S)-3-((S)-sec-butyl)-2-oxo-N-((R)-6-oxopiperidin-3-yl)-1,2,3,5-tetrahydro-4H-benzo[e][1,4]diazepine-4-carboxamide], 0.88 µM.
For `CC[C@H](C)[C@H]1C(=O)Nc2ccccc2CN1C(=O)N[C@H]1CCC(=O)NC1` [Compound 219, (S)-3-((S)-sec-butyl)-2-oxo-N-((S)-6-oxopiperidin-3-yl)-1,2,3,5-tetrahydro-4H-benzo[e][1,4]diazepine-4-carboxamide], the AC1.4 amounted to 2.10 µM.
For `CC[C@H](C)[C@H]1C(=O)Nc2ccccc2CN1C(=O)NCCS(C)(=O)=O` [Compound 220, (S)-3-((S)-sec-butyl)-N-(2-(methylsulfonyl)ethyl)-2-oxo-1,2,3,5-tetrahydro-4H-benzo[e][1,4]diazepine-4-carboxamide], the AC1.4 stood at 3.01 µM.
Take `CC[C@H](C)[C@H]1C(=O)Nc2ccccc2CN1C(=O)NCCS(N)(=O)=O` [Compound 221, (S)-3-((S)-sec-butyl)-2-oxo-N-(2-sulfamoylethyl)-1,2,3,5-tetrahydro-4H-benzo[e][1,4]diazepine-4-carboxamide]: the AC1.4 was found to be 1.80 µM.
For `CC[C@H](C)[C@H]1C(=O)Nc2ccccc2CN1C(=O)NCCN1CC[C@@H](O)C1` [Compound 222, (S)-3-((S)-sec-butyl)-N-(2-((R)-3-hydroxypyrrolidin-1-yl)ethyl)-2-oxo-1,2,3,5-tetrahydro-4H-benzo[e][1,4]diazepine-4-carboxamide] the value was 2.02 µM.
As for `CC[C@H](C)[C@H]1C(=O)Nc2ccccc2CN1C(=O)NCCN1CC[C@H](O)C1` [Compound 223, (S)-3-((S)-sec-butyl)-N-(2-((S)-3-hydroxypyrrolidin-1-yl)ethyl)-2-oxo-1,2,3,5-tetrahydro-4H-benzo[e][1,4]diazepine-4-carboxamide], the AC1.4 came out at 1.43 µM.
Take `CC[C@H](C)[C@H]1C(=O)Nc2ccccc2CN1C(=O)NC1CCS(=O)(=O)C1` (stereo partly drawn) [Compound 224, (3S)-3-((S)-sec-butyl)-N-(1,1-dioxoidotetrahydrothiophen-3-yl)-2-oxo-1,2,3,5-tetrahydro-4H-benzo[e][1,4]diazepine-4-carboxamide]: the AC1.4 was found to be 2.85 µM.
Consider `CC[C@H](C)[C@H]1C(=O)Nc2ccccc2CN1C(=O)N(C)CCO` [Compound 225, (S)-3-((S)-sec-butyl)-N-(2-hydroxyethyl)-N-methyl-2-oxo-1,2,3,5-tetrahydro-4H-benzo[e][1,4]diazepine-4-carboxamide], for which the AC1.4 is 1.67 µM.
For `CC[C@H](C)[C@H]1C(=O)Nc2ccccc2CN1C(=O)N1CCNCC1` [Compound 226, (S)-3-((S)-sec-butyl)-4-(piperazine-1-carbonyl)-1,3,4,5-tetrahydro-2H-benzo[e][1,4]diazepin-2-one] the value was 3.91 µM.
`CC[C@H](C)[C@H]1C(=O)Nc2ccccc2CN1C(=O)N1CCC(O)C1` (stereo partly drawn) [Compound 227, (3S)-3-((S)-sec-butyl)-4-(3-hydroxypyrrolidine-1-carbonyl)-1,3,4,5-tetrahydro-2H-benzo[e][1,4]diazepin-2-one]: the AC1.4 worked out at 2.29 µM.
Consider `CC[C@H](C)[C@H]1C(=O)Nc2ccccc2CN1C(=O)N(C)CC(N)=O` [Compound 228, (S)-N-(2-amino-2-oxoethyl)-3-((S)-sec-butyl)-N-methyl-2-oxo-1,2,3,5-tetrahydro-4H-benzo[e][1,4]diazepine-4-carboxamide], for which the AC1.4 was 3.76 µM.
Turning to `CC[C@H](C)[C@H]1C(=O)Nc2ccccc2CN1C(=O)N1CCNC(=O)C1` [Compound 229, (S)-3-((S)-sec-butyl)-4-(3-oxopiperazine-1-carbonyl)-1,3,4,5-tetrahydro-2H-benzo[e][1,4]diazepin-2-one], the AC1.4 came to 3.74 µM.
Regarding `CC[C@H](C)[C@H]1C(=O)Nc2ccccc2CN1C(=O)N1CCN(C)CC1` [Compound 230, (S)-3-((S)-sec-butyl)-4-(4-methylpiperazine-1-carbonyl)-1,3,4,5-tetrahydro-2H-benzo[e][1,4]diazepin-2-one], the AC1.4 was 1.31 µM.
Consider `CC[C@H](C)[C@H]1C(=O)Nc2ccccc2CN1C(=O)N1CCN[C@@H](C)C1` [Compound 231, (S)-3-((S)-sec-butyl)-4-((S)-3-methylpiperazine-1-carbonyl)-1,3,4,5-tetrahydro-2H-benzo[e][1,4]diazepin-2-one], for which the AC1.4 was determined as 4.86 µM.
